“Also recorded” adds a separate entry of the source. Ends that are not written are not given here.
Experiments:
[1] = tested on: co-cultures of cardiomyocytes and cardiac fibroblasts; assay: Fibrotic extracellular matrix (ECM) secretion, co-cultures; type: cell-based, mouse; details: agent alone vs unstimulated cultures, 48 h
Protocol: (§1) Primary cardiac fibroblasts and cardiomyocytes were isolated from both wild-type and CXCR3−/− neonatal mouse pups. After washing in PBS, hearts were stirred for 5 minutes in 0.5% trypsin at 37° C. to dissociate cells into solution. The suspended cells were then transferred to DMEM containing 20% fetal bovine serum (FBS) on ice to inactivate trypsin activity, and dissociation was repeated twice more with fresh trypsin solution. Cells were then washed and plated into 6-well plates at 1.25×10^6 cells/well, suspended in cardiac cell media (DMEM containing 7.5% dialyzed FBS and 1% antibiotic/antimitotic solution). After three hours, adhered fibroblasts were separated from the unattached cardiomyocytes through resuspension of the cells, and cardiomyocytes were plated separately at a density of 5×10^5 cells/ml.
Cardiac fibrosis is marked by overproduction of ECM proteins following injury. To observe the effect of IP-10p on secretion of these molecules, co-cultures of cardiomyocytes and cardiac fibroblasts were used to account for […] signaling taking place between the two dominant cell types in the heart. Fibroblasts and myocytes were plated at a 2:1 ratio using the same culture conditions and treatment groups described above for fibroblast activation. Following a 48-hour incubation with their respective treatments, cells were fixed, permeabilized and stained. Antibodies for collagen α1 type 1 (1:250, Santa Cruz Biotechnology SC8784, Dallas, TX), fibronectin (1:250, Abcam ab2413), and tenascin C (1:200, Abcam ab6346), followed by their appropriate secondary antibodies (Abcam ab150132, ab150077, and 150153, respectively), were used to determine fibrotic ECM secretion from the co-cultures. Expression of these molecules is expressed at CTCF and was quantified using MetaMorph® (Molecular Devices, Sunnyvale, CA).

cardiac fibroblasts [2] = assay: Fibroblast activation assay (αSMA), cardiac fibroblasts; type: cell-based, mouse; details: TGFβ1 10 ng/mL vs untreated control
Protocol: as §1
Fibroblast activation to myofibroblasts is marked by αSMA expression within the cytoskeleton and serves as a marker to induce fibrosis. Cardiac fibroblasts were plated at 2,000 cells/well in an 8-well chamber slide and allowed to adhere overnight. After 24 hours, cells were washed and treated with: TGFβ1 alone (10 ng/ml), CXCL10 alone (10 μM), IP-10p alone (10 μM), TGFβ1+CXCL10, TGFβ1+IP-10p, or left untreated. After 24 hours, cells were fixed in ice cold methanol for 10 minutes and stained for αSMA (1:200, Abcam ab5694, Cambridge, UK) at 4° C. overnight, followed by a goat-anti-rabbit Alexa Fluor 594-conjugated secondary antibody (Abcam ab150080). After counterstaining with DAPI, cells were imaged, and fibroblast activation was measured using corrected total cell fluorescence (CTCF). These measurements were also performed in co-cultures of cardiomyocytes and cardiac fibroblasts (2:1 ratio)

primary lung fibroblasts [3] = assay: qPCR of pro-fibrotic mRNAs in primary lung fibroblasts; type: cell-based, human; details: TGF-β 10 ng/mL, 24 h
Protocol: The next day, the medium was changed to quiescent medium and the cells were incubated in this medium for 24 hours. The following day, cells were either left untreated, treated with 10 ng/mL or 100 ng/mL of IP-10-1 (SEQ ID NO: 2), IP-10-2 (SEQ ID NO: 3) or IP-10-3 (SEQ ID NO: 4) peptide, treated with 10 ng/mL TGF-β, or treated with peptide and TGF-β for 24 hours. Total RNA was extracted using the Qiagen miRNeasy kit (Qiagen) and treated with DNase1, according to the manufacturer's instructions. RNA was then quantified and converted to cDNA using the Clontech RNA to cDNA EcoDry Double Primed Premix (Takara). qPCR was performed using PowerUp Sybr Green (Invitrogen) on an Applied Biosystems Quant Studio 3 instrument. Primers were from IDT and were designed using IDT Primer Quest and NCBI Primer Blast tools. The delta-delta Ct method was used to determine relative expression. GAPDH was used as a housekeeping gene.

cardiac fibroblasts [4] = assay: Motility (scratch) assay, cardiac fibroblasts; type: cell-based, mouse
Protocol: as §1
(§2) To determine the effect of IP-10p on TGFβ1-induced cell migration, motility assays were performed on cardiac fibroblasts, cardiomyocytes, and co-cultures (2:1 ratio of cardiomyocytes to fibroblasts). Cells were plated at 2.5×10^5 cells/well in a 12-well uncoated plate in depleted media (DMEM containing 0.5% FBS) 24 hours before beginning the experiment. A pipette tip was used to create a scratch in the monolayer and the plate was washed twice with PBS to remove scraped cells. Cells were then treated with TGFβ1 (R&D Systems, Minneapolis, MN) alone (10 ng/mL) to stimulate fibrosis, CXCL10 alone (10 μM), IP-10p alone (10 μM), TGFβ1+CXCL10, TGFβ1+IP-10p, or left untreated. Images were taken immediately after scratching and 24 hours later, and Adobe Photoshop was used to quantify wound motility as distance between wound edges relative to the initial scratch width.

primary lung fibroblasts [5] = assay: Scratch assay, TGF-β-induced fibroblast migration; type: cell-based, human; details: TGF-β 10 ng/mL, 24 hours
Protocol: Next, studies were performed to evaluate the effect of IP-10 related peptides on migration of lung fibroblasts in response to TGF-β. Primary lung fibroblasts from healthy patients were plated in 24-well plates in complete medium and incubated overnight. The next day, the medium was changed to quiescent medium and cells were incubated in this medium for 24 hours. The following day, a plus-shaped scratch was made across the cells using a 1000 μL pipette tip. An image was taken at a location that could be identified later. After imaging, cells were either left untreated, treated with 100 ng/mL peptide alone, treated with 10 ng/mL TGF-β, or treated with peptide and TGF-β and incubated for 24 hours. At the end of the incubation time, the cells were imaged in the same location as in the original image to visualize closure of the scratch. The denuded area was calculated using ImageJ software and the percent wound closure was calculated for each treatment group.

primary lung fibroblasts [6] = details: for number of viable cells (Calcein-AM uptake): 1 to 1000 ng/mL, 24 hours
Protocol: The effect of IP-10-related peptides on viability of lung fibroblasts was evaluated. Primary lung fibroblasts from healthy patients (SC31 and SC45) were either left untreated or treated with various concentrations of peptides (1 to 1000 ng/mL) for 24 hours. Treatment for 30 minutes with 70% ethanol in water was used as a positive control for dead cells. The Molecular Probes LIVE/DEAD Viability/Cytotoxicity Kit for mammalian cells (Invitrogen) was used to stain live cells. Following the manufacturer's protocol, at the end of treatment, cells in 96-well plates were washed with PBS, and then incubated in 2 μM Calcein-AM solution for 45 minutes at room temperature. Following incubation, the cells were imaged under a fluorescence microscope using the GFP channel. For quantification, ImageJ was used to count the number of live cells per field.

cardiomyocytes = assay: Motility (scratch) assay, cardiomyocytes; type: cell-based, mouse; details: TGFβ1 10 ng/mL + agent 10 μM, 24 h; FIG. 1A
Protocol: as §1, §2

cardiac fibroblasts [7] = assay: P38 MAPK-dependent extracellular matrix production in cardiac fibroblasts; type: cell-based, mouse
From the text: (§3) CM and CF were isolated from wild type and CXCR3-null FVB neonatal mice. Following isolation, CM, CF, or CM/CF in both direct and indirect co-cultures were challenged with CM and CF activating growth factor transforming growth factor […]. Antagonist peptide treatments, CRF-5-3 and CRF-5-5, were given alone or in combination with CXCL10. To determine whether CRF-5-3 and CRF-5-5 block CXCL10 binding to its receptor, the ability of biotin-tagged CXCL10 and/or FITC-tagged CRF-5-5 to compete for binding to CM and CF was analyzed using flow cytometry. In vitro cellular function assays were assessed for migration, apoptosis, and extracellular matrix (ECM) secretion. Real time quantitative polymerase chain reaction was employed in order to determine modified relative gene expression of both CM and FB, following treatment.

cardiomyocytes (CM) = assay: Real time quantitative PCR relative gene expression, cardiomyocytes; type: cell-based, mouse; details: peptide with CXCL10
From the text: as §3

[8] = tested on: cardiac fibroblasts (CF) and cardiomyocytes (CM); assay: In vitro cellular function assays on CM and CF (P38 signaling, motility, ECM); type: cell-based, mouse
From the text: as §3

cardiac fibroblasts (CF) = assay: Real time quantitative PCR relative gene expression, cardiac fibroblasts; type: cell-based, mouse; details: peptide with CXCL10
From the text: as §3

CM/CF co-cultures = assay: Histochemical and fluorescence analyses of ECM in CM/CF co-cultures; type: cell-based, mouse
From the text: as §3

transforming growth factor beta 1 [TGFβ1]
collagen secretion, agent alone [1]: significant upregulation | fibronectin secretion, agent alone [1]: significant upregulation | αSMA expression, TGFβ1 alone (cardiac fibroblasts [2]): drastically increased αSMA expression | expression of pro-fibrotic mRNAs, TGF-β alone (primary lung fibroblasts [3]): induced expression; also recorded: caused an induction | increase of cardiac fibroblast motility relative to untreated cells (cardiac fibroblasts [4]; TGFβ1 10 ng/mL alone, 24 h): over 3 fold | fibroblast migration (wound closure), TGF-β alone (primary lung fibroblasts [5]): significantly increased fibroblast migration; also recorded: significantly increased rate of wound closure

CCO [ethanol, reference compound]
Calcein-AM positive cells, positive control for dead cells (primary lung fibroblasts [6]; 70% ethanol in water, 30 minutes): elimination of the detected Calcein-AM positive cells

C-X-C chemokine ligand 10 [CXCL10]
motility of cardiac fibroblasts, agent alone (cardiac fibroblasts [4]; 10 μM alone, 24 h, compared to control): not altered | migration following TGF-β induction in cardiac fibroblasts (cardiac fibroblasts [4]; FIG. 1B): inhibit migration | reduction of motility of TGFβ1-treated fibroblasts (cardiac fibroblasts [4]; TGFβ1 10 ng/mL + agent 10 μM, 24 h): 30% | cardiomyocyte motility in the presence of TGFβ1 (cardiomyocytes): completely inhibited; also recorded: inhibit migration

PESKVIKNLLKVASKERSKRSP [IP-10-1]
number of viable cells (Calcein-AM uptake) (primary lung fibroblasts [6]): no impact

PESRVIKNLLRVVSKEKSRRSP [IP-10-2]
number of viable cells (Calcein-AM uptake) (primary lung fibroblasts [6]): no impact

FAKAIKNFAKAVAKFA [IP-10-3, FAKAIKNFAKAVAKFA]
number of viable cells (Calcein-AM uptake) (primary lung fibroblasts [6]): no impact

FRFLFRGGRFLFRF [CRF-5-3]
CXCL10 inhibition of TGF-β-induced P38 MAPK-dependent extracellular matrix production (cardiac fibroblasts [7]): altered | CXCL10-induced gene expression on CM (cardiomyocytes (CM)): altered | CXCL10-suppressed growth factor-induced ECM production [8]: promote the disinhibition | CXCL10-suppressed growth factor-induced intracellular P38 signaling [8]: promote the disinhibition | CXCL10-suppressed growth factor-induced motility [8]: promote the disinhibition | CXCL10-induced gene expression on FB (cardiac fibroblasts (CF)): altered | ECM alterations following TGF-β and/or CXCL10 treatment (CM/CF co-cultures): CRF-5-3-mediated alterations

FRWLWRGGRWLWRF [CRF-5-5]
CXCL10 inhibition of TGF-β-induced P38 MAPK-dependent extracellular matrix production (cardiac fibroblasts [7]): altered | CXCL10-induced gene expression on CM (cardiomyocytes (CM)): altered | CXCL10-suppressed growth factor-induced ECM production [8]: promote the disinhibition | CXCL10-suppressed growth factor-induced intracellular P38 signaling [8]: promote the disinhibition | CXCL10-suppressed growth factor-induced motility [8]: promote the disinhibition | CXCL10 inhibition of TGF-β-induced matrix production [8]: interfered | CXCL10-induced gene expression on FB (cardiac fibroblasts (CF)): altered
